What was measured:
[1] = test system: SARS-CoV-2; assay: microbe, parasite or virus in culture; settings: Severe acute respiratory syndrome coronavirus 2, Vero C1008, 48 h
[2] = test system: SARS-CoV-2; assay: microbe, parasite or virus in culture; type: functional, organism-based, Chlorocebus sabaeus, Vero C1008; settings: Severe acute respiratory syndrome coronavirus 2, Vero C1008, 48 h
[3] = in vitro; settings: chlorocebus sabaeus, Vero E6 (Vero C1008) cells

Cc1cc(-c2ccc(/N=N/c3ccc4c(S(=O)(=O)O)cc(S(=O)(=O)O)c(N)c4c3O)c(C)c2)ccc1/N=N/c1ccc2c(S(=O)(=O)O)cc(S(=O)(=O)O)c(N)c2c1O [EVANS BLUE FREE ACID]
IC50 [1]: > 100 µM | IC50 ([1]; read-out: pIC50 (converted)): > 100 µM | IC50 ([2]; read-out: IC50): > 100 µM | IC50 ([2]; read-out: pIC50 (converted)): > 100 µM | CC50 at 48 h ([3]; CC50): 18 µM | CC50 at 48 h ([3]; pCC50): 17.8 µM

COc1ccc2cc1Oc1ccc(cc1)C[C@H]1c3cc(c(OC)cc3CCN1C)Oc1c(OC)c(OC)cc3c1[C@H](C2)N(C)CC3 [FANCHININ]
IC50 [1]: 3.98 µM | IC50 ([1]; read-out: pIC50 (converted)): 3.98 µM | IC50 ([2]; read-out: IC50): > 50.1 µM | IC50 ([2]; read-out: pIC50 (converted)): > 50.1 µM | CC50 at 48 h ([3]; CC50): 5.17 µM | CC50 at 48 h ([3]; pCC50): 5.13 µM

CC1=C(/C=C/C(C)=C/C=C/C(C)=C/C(=O)Nc2ccc(O)cc2)C(C)(C)CCC1 [FENRETINIDE]
IC50 [1]: > 100 µM | IC50 ([1]; read-out: pIC50 (converted)): > 100 µM | IC50 ([2]; read-out: IC50): 2.95 µM | IC50 ([2]; read-out: pIC50 (converted)): 2.95 µM | CC50 at 48 h ([3]; CC50): 5.01 µM | CC50 at 48 h ([3]; pCC50): 5.01 µM

CN(C)CCCn1cc(-c2ccccc2)c(-c2ccccc2)n1 [FEZOLAMINE]
IC50 [1]: 14.5 µM | IC50 ([1]; read-out: pIC50 (converted)): 14.5 µM | IC50 ([2]; read-out: IC50): > 100 µM | IC50 ([2]; read-out: pIC50 (converted)): > 100 µM | CC50 at 48 h ([3]; CC50): 39.8 µM | CC50 at 48 h ([3]; pCC50): 39.8 µM

CCOC(=O)Nc1ccc(NCc2ccc(F)cc2)nc1N [FLUPIRTINE]
IC50 [1]: > 100 µM | IC50 ([1]; read-out: pIC50 (converted)): > 100 µM | IC50 ([2]; read-out: IC50): > 100 µM | IC50 ([2]; read-out: pIC50 (converted)): > 100 µM | CC50 at 48 h ([3]; CC50): > 100 µM | CC50 at 48 h ([3]; pCC50): > 100 µM

OC(CCCN1CCc2c(c3cc(F)ccc3n2-c2ccc(F)cc2)C1)c1ccc(F)cc1 (centres undefined) [FLUTROLINE]
IC50 [1]: 4.68 µM | IC50 ([1]; read-out: pIC50 (converted)): 4.68 µM | IC50 ([2]; read-out: IC50): > 100 µM | IC50 ([2]; read-out: pIC50 (converted)): > 100 µM | CC50 at 48 h ([3]; CC50): 6.92 µM | CC50 at 48 h ([3]; pCC50): 6.92 µM

COc1cc2c(cc1OC)C(c1cccc(Cl)c1)=NN=C(C)C2 [GIRISOPAM]
IC50 [1]: > 100 µM | IC50 ([1]; read-out: pIC50 (converted)): > 100 µM | IC50 ([2]; read-out: IC50): > 100 µM | IC50 ([2]; read-out: pIC50 (converted)): > 100 µM | CC50 at 48 h ([3]; CC50): > 100 µM | CC50 at 48 h ([3]; pCC50): > 100 µM

CCN(CC)Cc1ccc2cc(COC(=O)Nc3ccc(C(=O)NO)cc3)ccc2c1 [GIVINOSTAT]
IC50 [1]: 10.5 µM | IC50 ([1]; read-out: pIC50 (converted)): 10.5 µM | IC50 ([2]; read-out: IC50): > 100 µM | IC50 ([2]; read-out: pIC50 (converted)): > 100 µM | CC50 at 48 h ([3]; CC50): 0.767 µM | CC50 at 48 h ([3]; pCC50): 0.759 µM

CCn1cc(-c2ccnc3[nH]c(-c4cccc(CN(C)C)c4)cc23)c(-c2ccc(NC(=O)N(C)C)cc2)n1 [GSK-1070916]
IC50 [1]: > 100 µM | IC50 ([1]; read-out: pIC50 (converted)): > 100 µM | IC50 ([2]; read-out: IC50): > 100 µM | IC50 ([2]; read-out: pIC50 (converted)): > 100 µM | CC50 at 48 h ([3]; CC50): 9.33 µM | CC50 at 48 h ([3]; pCC50): 9.33 µM

CCN(CC)CCOc1ccc(-c2nc3cc(Cl)ccc3s2)cc1 [HALETHAZOLE]
IC50 [1]: ~3.89 µM | IC50 ([1]; read-out: pIC50 (converted)): ~3.89 µM | IC50 ([2]; read-out: IC50): > 100 µM | IC50 ([2]; read-out: pIC50 (converted)): > 100 µM | CC50 at 48 h ([3]; CC50): 3.72 µM | CC50 at 48 h ([3]; pCC50): 3.72 µM

CCCCN(CCCC)CCC(O)c1cc2c(Cl)cc(Cl)cc2c2cc(C(F)(F)F)ccc12 (centres undefined) [HALOFANTRINE]
IC50 [1]: 9.55 µM | IC50 ([1]; read-out: pIC50 (converted)): 9.55 µM | IC50 ([2]; read-out: IC50): ~9.12 µM | IC50 ([2]; read-out: pIC50 (converted)): ~9.12 µM | CC50 at 48 h ([3]; CC50): 11.5 µM | CC50 at 48 h ([3]; pCC50): 11.5 µM

CN1CCCN(C(c2ccccc2)c2ccc(Cl)cc2)CC1 (centres undefined) [HOMOCHLORCYCLIZINE]
IC50 [1]: > 20 µM | IC50 ([1]; read-out: pIC50 (converted)): > 20 µM | IC50 ([2]; read-out: IC50): > 25.1 µM | IC50 ([2]; read-out: pIC50 (converted)): > 25.1 µM | CC50 at 48 h ([3]; CC50): 21.1 µM | CC50 at 48 h ([3]; pCC50): 20.9 µM

CC[C@H]1CN2CC[C@H]1C[C@H]2[C@H](O)c1ccnc2ccc(OC)cc12 [HYDROQUININE]
IC50 [1]: 15.5 µM | IC50 ([1]; read-out: pIC50 (converted)): 15.5 µM | IC50 ([2]; read-out: IC50): > 25.1 µM | IC50 ([2]; read-out: pIC50 (converted)): > 25.1 µM | CC50 at 48 h ([3]; CC50): > 25.1 µM | CC50 at 48 h ([3]; pCC50): > 25.1 µM

CCN(CCO)CCCC(C)Nc1ccnc2cc(Cl)ccc12 (centres undefined) [HYDROXYCHLOROQUINE]
IC50 [1]: ~11.6 µM | IC50 ([1]; read-out: pIC50 (converted)): ~11.5 µM | IC50 ([2]; read-out: IC50): ~17.1 µM | IC50 ([2]; read-out: pIC50 (converted)): ~17 µM | CC50 at 48 h ([3]; CC50): 47.9 µM | CC50 at 48 h ([3]; pCC50): 47.9 µM

COc1ccc2c(c1)c(CC(=O)O)c(C)n2C(=O)c1ccc(Cl)cc1 [INDOMETHACIN]
IC50 [1]: > 100 µM | IC50 ([1]; read-out: pIC50 (converted)): > 100 µM | IC50 ([2]; read-out: IC50): > 100 µM | IC50 ([2]; read-out: pIC50 (converted)): > 100 µM | CC50 at 48 h ([3]; CC50): > 100 µM | CC50 at 48 h ([3]; pCC50): > 100 µM

CO[C@H]1CC[C@H](n2c([C@@H]3CCCC(=O)N3c3ccc(F)c(F)c3)nc3cc(-c4c(C)noc4C)ccc32)CC1 [INOBRODIB]
IC50 [1]: > 100 µM | IC50 ([1]; read-out: pIC50 (converted)): > 100 µM | IC50 ([2]; read-out: IC50): > 100 µM | IC50 ([2]; read-out: pIC50 (converted)): > 100 µM | CC50 at 48 h ([3]; CC50): 3.16 µM | CC50 at 48 h ([3]; pCC50): 3.16 µM

CC(C)(C)c1cc(C(C)(C)C)c(NC(=O)c2c[nH]c3ccccc3c2=O)cc1O [IVACAFTOR]
IC50 [1]: 4.57 µM | IC50 ([1]; read-out: pIC50 (converted)): 4.57 µM | IC50 ([2]; read-out: IC50): > 25.1 µM | IC50 ([2]; read-out: pIC50 (converted)): > 25.1 µM | CC50 at 48 h ([3]; CC50): 4.62 µM | CC50 at 48 h ([3]; pCC50): 4.57 µM

Clc1ccc(-c2nn(Cc3ccccc3)c3c2CCNCC3)cc1 [JNJ-18038683 FREE BASE]
IC50 [1]: > 25.1 µM | IC50 ([1]; read-out: pIC50 (converted)): > 25.1 µM | IC50 ([2]; read-out: IC50): > 25.1 µM | IC50 ([2]; read-out: pIC50 (converted)): > 25.1 µM | CC50 at 48 h ([3]; CC50): 14.6 µM | CC50 at 48 h ([3]; pCC50): 14.5 µM

CCCCCCC(C)(C)c1cc(O)c2c(c1)OC(C)(C)[C@@H]1CC=C(C(=O)O)C[C@@H]21 [LENABASUM]
IC50 [1]: > 100 µM | IC50 ([1]; read-out: pIC50 (converted)): > 100 µM | IC50 ([2]; read-out: IC50): > 100 µM | IC50 ([2]; read-out: pIC50 (converted)): > 100 µM | CC50 at 48 h ([3]; CC50): ~21.4 µM | CC50 at 48 h ([3]; pCC50): ~21.4 µM
